# Target: T1, TDO2 (Homo sapiens, UniProt P48775)
# T1 construct: decreased levels of NFK in SW48 cells (high TDO expressing cells)
# Experiment: TDO2 cell assay (NFK GreenScreen, SW48 cells)
# Type: cell-based
# Conditions: SW48 cells (high TDO expressing), 200 uM tryptophan, 24 hours; Table 3; read-out: TDO2 Cell Fluor EC50
# T1 sequence (P48775 whole entry): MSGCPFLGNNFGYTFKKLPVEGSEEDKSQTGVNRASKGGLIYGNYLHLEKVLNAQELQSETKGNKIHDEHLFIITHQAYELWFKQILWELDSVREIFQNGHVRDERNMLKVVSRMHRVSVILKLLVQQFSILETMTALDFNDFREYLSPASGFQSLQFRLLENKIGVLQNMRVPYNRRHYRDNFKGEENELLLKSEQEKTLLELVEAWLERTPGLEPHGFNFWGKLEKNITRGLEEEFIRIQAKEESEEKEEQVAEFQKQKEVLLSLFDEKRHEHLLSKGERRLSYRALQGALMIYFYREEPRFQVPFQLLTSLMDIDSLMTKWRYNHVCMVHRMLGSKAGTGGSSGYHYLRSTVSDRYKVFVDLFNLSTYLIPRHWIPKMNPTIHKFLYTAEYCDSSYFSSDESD
row,SMILES,EC50 [µM]
1,"O[C@@H]1c2ccncc2CC[C@H]1[C@H]1c2ccccc2-c2cncn21 [Example 08a, (5S,6S)-6-((S)-5H-imidazo[5,1-a]isoindol-5-yl)-5,6,7,8-tetrahydroisoquinolin-5-ol]",0.048
2,"O[C@@H]1c2c(Cl)cnn2CC[C@@H]1[C@H]1c2ccccc2-c2cncn21 (single isomer, unassigned) [Example 160c]",23
3,"OC1c2ccnn2CCC1C1c2ccccc2-c2cncn21 (single isomer, unassigned) [Example 56f]",3.8
4,"N#CCN1CC[C@@H]([C@@H]2c3ccccc3-c3cncn32)[C@H](O)C1 (single isomer, unassigned) [Example 27d]",3
5,"OC1COCCC1C1c2cc(F)ccc2-c2cncn21 (single isomer, unassigned) [Example 75-1a]",5.7
6,"CC(=O)N1CCC(C2c3ccccc3-c3cncn32)C(O)C1 (single isomer, unassigned) [Example 09d, 1-(3-hydroxy-4-(5H-imidazo[5,1-a]isoindol-5-yl)piperidin-1-yl)ethan-1-one]",> 25
7,"CS(=O)(=O)N1CCC2(CCC(C3c4ccccc4-c4cncn43)C2O)CC1 (single isomer, unassigned) [Example 180b]",> 25
8,"O[C@H]1CN(CC(F)(F)F)CC[C@@H]1[C@H]1c2ccccc2-c2cncn21 [Example 82a, (3R,4R)-4-((S)-5H-imidazo[5,1-a]isoindol-5-yl)-1-(2,2,2-trifluoroethyl)piperidin-3-ol]",4.4
9,"CS(=O)(=O)N1CCC(O)C(C2c3ccc(F)cc3-c3cncn32)C1 (single isomer, unassigned) [Example 118d]",> 25
10,"CC1(C)C[C@H](O)[C@H]1[C@@H]1c2ccccc2-c2cncn21 [Example 22c, (1S,2R)-2-((R)-5H-imidazo[5,1-a]isoindol-5-yl)-3,3-dimethylcyclobutan-1-ol]",> 25
11,"OC1C(C2c3ccccc3-c3cncn32)CCC12CCOCC2 (single isomer, unassigned) [Example 68h]",> 25
12,"Cn1cc2c(n1)C(O)C(C1c3ccccc3-c3cncn31)CC2 (single isomer, unassigned) [Example 139-1e]",> 25
13,"CC(C)(C)OC(=O)N1CC2(CC(C3c4ccccc4-c4cncn43)C2O)C1 (single isomer, unassigned) [Example 41f, tert-butyl 7-hydroxy-6-(5H-imidazo[1,5-b]isoindol-5-yl)-2-azaspiro[3.3]heptane-2-carboxylate]",17
14,"Nc1ccc2c(n1)CCC(C1c3ccccc3-c3cncn31)C2O (single isomer, unassigned) [Example 121h]",4.8
15,"N#Cc1cnc2c(c1)CC[C@H]([C@@H]1c3ccccc3-c3cncn31)[C@H]2O (single isomer, unassigned) [Example 107h]",0.16
16,"OC1CC2(COC2)C1C1c2ccccc2-c2cncn21 (single isomer, unassigned) [Example 87g]",0.24
17,"CC1(C)CCCC(C)(C2c3ccccc3-c3cncn32)C1O (single isomer, unassigned) [Example 90b]",> 25
18,"OC1CC(C2c3ccccc3-c3cncn32)C1O (stereo not drawn) [Example 158a, 3-(5H-imidazo[5,1-a]isoindol-5-yl)cyclobutane-1,2-diol]",7.9
19,"OC1(C2c3ccccc3-c3cncn32)CC(F)(F)C1 (stereo not drawn) [Example 50, 3,3-difluoro-1-(5H-imidazo[5,1-a]isoindol-5-yl)cyclobutan-1-ol]",2.6

# Continued, values first:
row,EC50 [µM],SMILES
1,> 25,"CCS(=O)(=O)N1CC(O)C(C2c3ccccc3-c3cncn32)C1 (single isomer, unassigned) [Example 40d]"
2,14,"OC1c2[nH]ncc2CCC1C1c2ccccc2-c2cncn21 (single isomer, unassigned) [Example 157c]"
3,4.8,"NS(=O)(=O)c1ccc2c(c1)CCC(C1c3ccccc3-c3cncn31)C2O (single isomer, unassigned) [Example 100h]"
4,0.15,"O[C@H]1CC[C@H]1[C@H]1c2ccccc2-c2cncn21 [Example 01b, (1S,2S)-2-((S)-5H-imidazo[5,1-a]isoindol-5-yl)cyclobutan-1-ol]"
5,5.7,"CCS(=O)(=O)N1CC[C@H]([C@H]2c3ccccc3-c3cncn32)[C@@H](O)C1 [Example 16c, (3R,4R)-1-(ethylsulfonyl)-4-((S)-5H-imidazo[5,1-a]isoindol-5-yl)piperidin-3-ol]"
6,0.28,"OC1c2ccnn2CCCC1C1c2ccccc2-c2cncn21 (single isomer, unassigned) [Example 133e]"
7,17,"OC1CC2(COC2)C1C1c2ccccc2-c2cncn21 (single isomer, unassigned) [Example 87f]"
8,9.1,"CC1(O)CCOCC1C1c2ccccc2-c2cncn21 (single isomer, unassigned) [Example 61c]"
9,11,"NC(=O)C1(C(O)C2c3ccccc3-c3cncn32)CC1 (single isomer, unassigned) [Example 165c]"
10,> 25,"O[C@@H](C1CCOCC1)[C@@H]1c2ccccc2-c2cncn21 (single isomer, unassigned) [Example 138c]"
11,0.2,"NS(=O)(=O)N1CCC2(CC1)CC(C1c3ccccc3-c3cncn31)C2O (single isomer, unassigned) [Example 181f]"
12,> 25,"NC(=O)C1CCC(O)(C2c3ccccc3-c3cncn32)CC1 (single isomer, unassigned) [Example 140a]"
13,> 25,"OC1c2nncn2CCC1C1c2ccccc2-c2cncn21 (single isomer, unassigned) [Example 146-1a]"
14,15,"OC1c2cccn2CCC1C1c2ccccc2-c2cncn21 (single isomer, unassigned) [Example 136d]"
15,> 25,"Cn1cc2c(n1)CCC(C1c3ccccc3-c3cncn31)C2O (single isomer, unassigned) [Example 130h]"
16,8,"OC1CCC(F)(F)CC1C1c2ccccc2-c2cncn21 (single isomer, unassigned) [Example 18d, 4,4-difluoro-2-(5H-imidazo[5,1-a]isoindol-5-yl)cyclohexan-1-ol]"
17,0.89,"O=S1(=O)CC(C2c3ccccc3-c3cncn32)C(O)c2ccccc21 (racemic) [Example 96a, 4-hydroxy-3-(5H-imidazo[5,1-a]isoindol-5-yl)thiochromane 1,1-dioxide]"
18,> 25,"CC(C)(C)OC(=O)N1CCC(C2c3ccccc3-c3cncn32)C(O)C1 (single isomer, unassigned) [Example 10d, tert-butyl 3-hydroxy-4-(5H-imidazo[5,1-a]isoindol-5-yl)piperidine-1-carboxylate]"
19,10,"OC1CC2(CC2)C1C1c2ccccc2-c2cncn21 (single isomer, unassigned) [Example 72c]"
20,19,"N#Cc1cnn2c1[C@@H](O)[C@@H]([C@H]1c3ccccc3-c3cncn31)CC2 (single isomer, unassigned) [Example 156c]"
21,> 25,"OC1COCCC1C1c2cc(F)ccc2-c2cncn21 (single isomer, unassigned) [Example 75-1b]"
22,1.5,"Cn1cc2c(n1)CCC(C1c3ccccc3-c3cncn31)C2O (single isomer, unassigned) [Example 130a]"
23,13,"O[C@@H]1CCCC[C@@H]1[C@@H]1c2ccccc2-c2cncn21 [Example 03h, (1R,2R)-2-((R)-5H-imidazo[5,1-a]isoindol-5-yl)cyclohexan-1-ol]"

# Reference: US12583858B2 (Genentech, Inc., priority 2015, dated 2026)
